In one assay the target is T1, AII receptors (Cavia porcellus, UniProt Q9WV26).
T1 construct: the source of cell surface membranes is the guinea pig adrenal gland; from tissue; host or cells: guinea pig adrenal gland, cell surface membrane fraction
T1 sequence (Q9WV26 1-359): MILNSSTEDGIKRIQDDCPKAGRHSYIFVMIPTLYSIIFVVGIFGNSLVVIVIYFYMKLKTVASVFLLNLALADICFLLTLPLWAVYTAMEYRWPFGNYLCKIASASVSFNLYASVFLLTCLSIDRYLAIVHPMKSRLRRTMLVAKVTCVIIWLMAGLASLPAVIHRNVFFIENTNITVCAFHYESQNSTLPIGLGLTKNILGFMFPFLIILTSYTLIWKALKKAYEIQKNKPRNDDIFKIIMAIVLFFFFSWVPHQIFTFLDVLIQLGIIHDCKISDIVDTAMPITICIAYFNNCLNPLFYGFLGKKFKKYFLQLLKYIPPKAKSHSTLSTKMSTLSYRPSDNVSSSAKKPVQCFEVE
In words: Test A: displacement of radiolabelled AII binding to guinea pig adrenal gland cell surface membranes. As to conditions: read-out: IC50 (concentration for 50% displacement of radiolabelled AII binding). Here is the method: Test A: This in vitro procedure involves the incubation of the test compound initially at a concentration of 100 micromolar (or less) in a buffered mixture containing fixed concentrations of radiolabelled AII and a cell surface membrane fraction prepared from a suitable angiotensin target tissue. In this test, the source of cell surface membranes is the guinea pig adrenal gland which is well known to respond to AII. Interaction of the radiolabelled AII with its receptors (assessed as radiolabel bound to the particulate membrane fraction following removal of unbound radiolabel by a rapid filtration procedure such as is standard in such studies) is antagonized by compounds which also bind to the membrane receptor sites and the degree of antagonism (observed in the test as displacement of membrane-bound radioactivity) is determined readily by comparing the receptor-bound radioactivity in the presence of the test compound at the specified test concentration with a control value determined in the absence of the test compound. Using this procedure compounds showing at least 50% displacement of radiolabelled AII binding at a concentration of 10^-4 M are retested at lower concentrations to determine their potency. […]

The test system of assay [1] is angiotensin II-induced pressor responses. The experiment in a line: Test C: antagonism of angiotensin II-induced pressor responses in rats. It counts as in vivo. To be noted: iv, rat, i.v. administration. The protocol: Test C: This in vivo test involves using terminally-anaesthetised or conscious rats in which an arterial catheter has been implanted under anaesthesia for the measurement of changes in blood pressure. The AII antagonistic effects of the test compound following oral or parenteral administration, are assessed against angiotensin II-induced pressor responses. To ensure that the effect is specific, the effect of the test compound on vasopressin-induced pressor responses may also be determined in the same preparation.

Our source for the IC50 and ED50 values is US5198439A, “Angiotension II antagonizing pyridine derivatives” (Imperial Chemical Industries PLC, priority 1990, dated 1993).

A word on the ED50: it is the midpoint of the dose-response relation.

SMILES strings stand for the structures.

As for `COC(=O)c1c(OCc2ccc(-c3ccccc3-c3nnn[nH]3)cc2)cc(C)nc1C.Cl` [Example 2, methyl 2,6-dimethyl-4-[(2'-(1H-tetrazol-5-yl)biphenyl-4-yl)methoxy]pyridine-3-carboxylate hydrochloride], the IC50 on AII receptors was found to be 50 nM. For the same compound, it took a dose of 0.1 mg/kg to reach the 50% effect level in assay [1] (ED50).
